Experiment [1] deals with T1, glucocorticoid receptor (Rattus norvegicus, UniProt P06536).
T1 construct: gene Nr3c1; native receptor in R3230AC tumour cytosol (8-9 S component)
T1 sequence (P06536 1-795): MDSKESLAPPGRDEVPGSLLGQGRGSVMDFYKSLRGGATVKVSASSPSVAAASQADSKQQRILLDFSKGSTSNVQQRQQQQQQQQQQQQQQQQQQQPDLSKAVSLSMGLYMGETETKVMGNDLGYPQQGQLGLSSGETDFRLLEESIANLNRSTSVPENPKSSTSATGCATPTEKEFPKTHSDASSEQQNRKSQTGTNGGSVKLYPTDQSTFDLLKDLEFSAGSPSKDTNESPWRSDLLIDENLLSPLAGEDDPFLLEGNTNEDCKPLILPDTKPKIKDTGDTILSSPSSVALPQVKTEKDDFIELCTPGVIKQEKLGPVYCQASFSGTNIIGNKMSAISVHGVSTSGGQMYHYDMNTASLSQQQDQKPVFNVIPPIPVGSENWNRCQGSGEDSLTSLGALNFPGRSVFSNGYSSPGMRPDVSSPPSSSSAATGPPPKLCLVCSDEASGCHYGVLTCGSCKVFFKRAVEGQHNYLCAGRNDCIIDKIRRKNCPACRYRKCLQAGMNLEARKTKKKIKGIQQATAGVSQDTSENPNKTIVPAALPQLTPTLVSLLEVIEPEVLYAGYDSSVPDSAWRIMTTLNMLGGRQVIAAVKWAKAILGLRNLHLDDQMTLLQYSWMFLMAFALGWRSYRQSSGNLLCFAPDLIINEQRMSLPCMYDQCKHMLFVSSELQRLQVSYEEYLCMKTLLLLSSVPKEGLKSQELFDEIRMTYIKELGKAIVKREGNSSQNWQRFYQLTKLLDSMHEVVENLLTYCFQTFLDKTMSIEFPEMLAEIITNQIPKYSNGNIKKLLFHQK
In words: competition with [3H]-triamcinolone acetonide, sucrose gradient centrifugation (weak; no effect at […]). The following applies: read-out: % [3H]-triamcinolone acetonide bound at 5 umol/l.

The target of experiment [2] is T1, glucocorticoid receptor. Kind of experiment: competition with [3H]-triamcinolone acetonide, sucrose gradient centrifugation. The following applies: read-out: % [3H]-triamcinolone acetonide bound at 1 umol/l.
The target in experiment [3] is T1, glucocorticoid receptor. The description is as above. The following applies: read-out: % [3H]-triamcinolone acetonide bound at 5 umol/l.

As for `C[C@]12CC[C@@H]3c4ccc(O)cc4CC[C@H]3[C@@H]1CC[C@@H]2O` [Oestradiol-17β], the activity at 5 µM in experiment [1] was 45%.

In the case of `C[C@]12C=CC(=O)C=C1CC[C@H]1[C@@H]3C[C@@H](O)[C@](O)(C(=O)CO)[C@@]3(C)C[C@H](O)[C@@]12F` [Triamcinolone], the activity at 1 µM in experiment [2] was found to be 14%.

As for `C[C@]12CCC(=O)C=C1CC[C@@H]1[C@@H]2CC[C@@]2(C)[C@H]1CC[C@]2(O)C(=O)CO` [cortexolone], the activity at 5 µM in experiment [3] was determined as 25%.

The values are drawn from PMC2008813 (British Journal of Cancer, 1973).
